Reference: patent US20120213707A1, “Riboflavin Based Aerosol and Use as Placebo in Trials” (MPEX PHARMACEUTICALS, INC., priority 2009, published 2012)
Like-named read-outs stand apart in the source and are kept apart here.

Assays:
[1] = Aerosol particle size distribution, rat nose-only exposure system (7-Stage Mercer Cascade Impactor); format: physicochemical
Excerpt: (§1) The aerosol was produced by metering the flow of the test article or vehicle formulations to 3 clinical nebulizers (Sidestream) connected to high velocity airstreams (10 L/min to each nebuliser). The aerosol produced was discharged through a 40 mm diameter tube into a flow-past inhalation exposure system. The airflow rate through the exposure system was monitored and recorded manually during the aerosol generation. Airflow to the exposure system was controlled by the absolute volume of air supplying the aerosol generators using variable area flow meters.
Determinations of aerosol concentration, particle size distribution, oxygen concentration, relative humidity and temperature was performed on test atmosphere samples collected from a representative port of the exposure system, with a collection sample flow-rate of 1 L/min. The sample flow rates were precisely controlled using variable area flow meters that were calibrated using a primary airflow calibrator before use. The absolute volume of each aerosol concentration sample was measured using a wet type gas meter.
The distribution of particle size in the generated aerosols for Groups 2 to 4 was measured weekly during the treatment period by collecting samples into a 7-Stage Mercer Cascade Impactor and the sample substrates obtained were transferred to the analytical chemistry laboratory of ITR Laboratories Canada Inc. for the chemical determination of the particle size of the aerosolized Riboflavin 5′-phosphate using a validated analytical method (ITR Study No. 40241). The distribution of particle size in the generated aerosols for Group 1 was estimated once weekly by gravimetric determination. The mass median aerodynamic diameter (MMAD) and the Geometric Standard Deviation (GSD) were calculated based on the results obtained from the impactor using a log-probit transformation.

Sprague-Dawley rats = experiment: 28-day aerosolized liquid inhalation (nose-only) toxicity study in Sprague-Dawley rats; format: in vivo
Excerpt: (§2) The objective of the study was to determine the toxicity and toxicokinetic profile of the test article, riboflavin 5′-phosphate, following inhalation (nose-only) administration to rats for 28 consecutive days.
Test Article: riboflavin 5′-phosphate sodium salt hydrate; alternate identity: vitamin B2 phosphate; description: yellow crystals; potency: 74%. Vehicle article: saline (0.9% (w/v) NaCl for injection); description: clear colorless solution. Test system: rat (rattus norvegicus); strain: Sprague-Dawley Crl:CD (SD).
(§3) The test (0.5 mg/mL, 2.0 mg/mL, 5.0 mg/mL) and/or vehicle control formulations (0 mg/mL) for each group were prepared fresh daily on each day by dissolving the test article in saline. All prepared test article formulations were protected from light and kept at room temperature (RT).
(§4) Treatment: Daily inhalation by nose-only exposure for 60 minutes. Duration of treatment: 28 Days.
as §1
(§5) Assessments of mortality, clinical signs, body weights, food consumption, ophthalmology, functional observation battery and clinical chemistry, hematology, coagulation and urinalysis were performed. Plasma prepared from blood samples were collected from designated animals on the first and last days of the study and analyzed for Riboflavin 5′-phosphate content and toxicokinetic evaluation. All toxicology (main study) animals were euthanized upon completion of the 28-day treatment period and selected tissues were retained, weighed and examined microscopically. Toxicokinetic animals were euthanized following completion of blood sampling and were not subjected to necropsy examination or tissue collection. The following tables summarize tests, methods, and abbreviations used in hematology tests (Table 3), coagulation tests (Table 4), clinical chemistry tests (Table 5), and urinalysis (Table 6).

[2] = Stability of dosing formulations in saline; format: physicochemical; settings: saline formulations 0.5-5.0 mg/mL, refrigerated at least 48 hours or room temperature on day of preparation
Procedure: as §3
Analyses determined that all formulations were within acceptance criteria ranges (±10%). The formulation concentrations ranged between 94.4 and 106.4% of nominal concentrations and therefore considered acceptable.
Analyses determined that all formulations were within acceptance criteria ranges (±10%). The formulation concentrations ranged between 94.9 and 104.5% of nominal concentrations and were therefore considered acceptable. […]

[3] = format: in vivo, rat (rattus norvegicus)
Procedure: as §2, §4, §5

[4] = Group 2 Low Dose, 0.5 mg/mL formulation
[5] = Group 3 Mid Dose, 2.0 mg/mL formulation
[6] = Group 4 High Dose, 5.0 mg/mL formulation
[7] = female, Sprague-Dawley, rat, in vivo, 0.96 mg/kg/day
[8] = female, Sprague-Dawley, rat, in vivo, 2.4 mg/kg/day
[9] = male, Sprague-Dawley, rat, in vivo, 2.4 mg/kg/day
[10] = male, Sprague-Dawley, rat, in vivo, inhaled or intranasal, 0.96 mg/kg/day

Cc1cc2nc3c(=O)[nH]c(=O)nc-3n(C[C@H](O)[C@H](O)[C@H](O)COP(=O)(O)O)c2cc1C [riboflavin 5′-phosphate]
% of particles <3.1 μm [1, 4]: 91.8%
MMAD [1, 4]: 1.2 μm
% of particles <3.1 μm [1, 5]: 91.9%
MMAD [1, 5]: 1.2 μm
% of particles <3.1 μm [1, 6]: 87.8%
MMAD [1, 6]: 1.2 μm
No Observed Effect Level (NOEL) (Sprague-Dawley rats; Sprague-Dawley rats, once daily inhaled, 28 consecutive days, high dose group): 2.479 mg/kg/day
clinical chemistry (Sprague-Dawley rats; rat, in vivo): no changes noted in any clinical chemistry parameters that were considered to be treatment-related
coagulation times (Sprague-Dawley rats; rat, in vivo): unaffected by treatment
functional observation battery (Sprague-Dawley rats; rat, in vivo): no changes noted in any functional observation battery parameters that were considered to be treatment-related
hematology (Sprague-Dawley rats; rat, in vivo): no changes noted in any haematology parameters that were considered to be treatment-related
macroscopic findings at necropsy (Sprague-Dawley rats; rat, in vivo): no findings attributed to the test article administration
microscopic findings (Sprague-Dawley rats; rat, in vivo): no microscopic findings that were considered to be test article related
urinalysis (Sprague-Dawley rats; rat, in vivo): no changes in any of the urinalysis parameters evaluated that were considered affected by treatment
adverse effects (Sprague-Dawley rats; rat, in vivo, 2.4 mg/kg/day): no adverse effects were observed
mortality (Sprague-Dawley rats; rats, 0.244 mg/kg/day, considered accidental (restraint), not test article related): One male rat dosed at 0.244 mg/kg/day was found dead on Day 12
local or systemic toxicity (histology of lymphoid and respiratory tract tissues) (Sprague-Dawley rats; rats, 28 days inhalation): no indications of local or systemic toxicity
tolerability (Sprague-Dawley rats; rats, nose-only inhalation, 28 consecutive days): well tolerated
formulation stability ([2]; dog study): stable
formulation stability ([2]; rat study): stable
Cmax ratio (M/F) ([3]; both, Sprague-Dawley, rat, in vivo, 0.96 mg/kg/day): 1.59
AUC ratio (M/F) ([3]; both, Sprague-Dawley, rat, in vivo, 2.4 mg/kg/day): 1.24
AUC ratio (M/F) [3, 7]: 1.25
Cmax ratio (M/F) [3, 7]: 1.50
AUC ratio (M/F) [3, 8]: 0.672
Cmax ratio (M/F) [3, 8]: 1.17
riboflavin concentration in plasma ([3]; female, Sprague-Dawley, rat, in vivo, 24 h): 0.829 µg/mL
Tmax of riboflavin ([3]; female, Sprague-Dawley, rat, in vivo, inhaled or intranasal, 0.96 mg/kg/day): 0.00 h
Tmax of riboflavin ([3]; female, Sprague-Dawley, rat, in vivo, inhaled or intranasal, 2.4 mg/kg/day): 0.00 h
AUC ratio (M/F) [3, 9]: 0.433
Cmax ratio (M/F) [3, 9]: 0.801
AUC(0-T) of riboflavin [3, 10]: 0.0159 µg·h/mL
Tmax of riboflavin [3, 10]: 0.00 h
Tmax of riboflavin ([3]; male, Sprague-Dawley, rat, in vivo, inhaled or intranasal, 2.4 mg/kg/day): 0.00 h
gender difference in riboflavin exposure ([3]; rat, in vivo): no gender difference in riboflavin exposure
riboflavin 5′-phosphate concentrations in plasma of treated animals ([3]; rat, in vivo): detected in only very few treated animals
riboflavin concentration values, males versus females ([3]; rats, Day 1): slightly higher in males than in females
